Results published in patent publication US20250108051A1, “THERAPEUTIC AGENT FOR CANCER” (TOHOKU UNIVERSITY, priority 2022, published 2025).

Tests used:
[1] = tested on: 8505C (BRAF V600E-mutated thyroid cancer cell line); assay: MTT assay, encorafenib + binimetinib with ATRA; format: cell-based; details: ATRA 0, 1.0 or 10 μM; encorafenib and binimetinib 0 to 10 μM
[2] = tested on: CO115 (BRAF V600E-mutated colorectal cancer cell line); assay: MTT assay, encorafenib + binimetinib with retinoid; format: cell-based; details: ATRA 0, 1.0 or 10 μM; encorafenib and binimetinib 0 to 10 μM
Protocol: (§1) RKO cells were seeded on a 96-well plate with the number of cells of 1.5×10^3 cells/well, CO115 cells were seeded on a 96-well plate with the number of cells of 2.5×10^3 cells/well, and HT29 cells and WiDR cells were respectively seeded on 96-well plates with the number of cells of 6×10^3 cells/well. After incubation for about 24 hours until the cell density reached 40% to 60%, the drug was administered. After incubation at 37° C. for 72 hours, the MTT assay was performed using Cell Counting Kit-8 (Dojindo Laboratories, Kumamoto, Japan). To each well was added 10 μl of Cell Counting Kit-8 solution, the plates were placed in a culture vessel at 5% CO2 and 37° C. for 120 minutes to perform a color reaction, and then the absorbance at 450 nm was measured and evaluated with a microplate reader SpectraMax M2e (Molecular Devices, Sunnyvale, CA, USA). Cells administered with 0.1% DMSO were used as a control. The above was performed three or more times as independent experiments.
(§2) In various kinds of colorectal cancer cell lines, the inhibition effect of a BRAF inhibitor (encorafenib) and an MEK inhibitor (binimetinib) for the viability of cells and the enhancement by ATRA were examined. […] The horizontal axis indicates component concentrations of encorafenib and binimetinib in a range of 0 μM to 10 μM, and the vertical axis indicates the cell viability when 0 μM, 1.0 μM, or 10 μM (each bar graph) of ATRA was administered. As shown in the drawing, encorafenib and binimetinib were used in an equal molar concentration.
(§3) As the compounds for acting and on a retinoid receptor, retinol, tamibarotene, bexarotene among the retinoids were used. As the cell lines, the above-described cell lines including RKO, HT29, and CO115 were used. As the BRAF inhibitor and the MEK inhibitor to be used in combination, a component (EB) obtained by mixing encorafenib and binimetinib in equal amounts was used as in Test Example 2.
as §3, with “acting” for “acting and”, “tamibarotene, and” for “tamibarotene,”, “colorectal cancer” for “above-described”, “HT29, CO115, WiDR, COLO205,” for “HT29,”, “LIM2405 described above” for “CO115”

[3] = tested on: HT29 (BRAF V600E-mutated colorectal cancer cell line); assay: MTT assay, encorafenib + binimetinib with retinoid; format: cell-based; details: ATRA 0, 1.0 or 10 μM; encorafenib and binimetinib 0 to 10 μM
Protocol: as §1, §2, §3
as §3, with “acting” for “acting and”, “tamibarotene, and” for “tamibarotene,”, “colorectal cancer” for “above-described”, “HT29, CO115, WiDR, COLO205,” for “HT29,”, “LIM2405 described above” for “CO115”

[4] = tested on: RKO (BRAF V600E-mutated colorectal cancer cell line); assay: MTT assay, encorafenib + binimetinib with retinoid; format: cell-based; details: ATRA 0, 1.0 or 10 μM; encorafenib and binimetinib 0 to 10 μM
Protocol: as §1, §2, §3
as §3, with “acting” for “acting and”, “tamibarotene, and” for “tamibarotene,”, “colorectal cancer” for “above-described”, “HT29, CO115, WiDR, COLO205,” for “HT29,”, “LIM2405 described above” for “CO115”

HT29 cell line [5] = assay: Subcutaneous transplanted tumor mouse model (Test Example 13); format: in vivo
Protocol: The in vivo antitumor effect and toxicity generated by combined use of a compound acting on a retinoid receptor, a BRAF inhibitor, an MEK inhibitor, and an anti-EGFR antibody, or a BRAF inhibitor and an anti-EGFR antibody were evaluated by a mouse model subcutaneous transplanted with a HT29 cell line.
Female nude mice (BALB/c-nu) were purchased from The Jackson Laboratory Japan, and raised in a specific pathogen-free environment. The cultured HT29 cell line was collected with trypsin, and a culture medium and a Corning Matrigel basement membrane matrix (Corning) were mixed at a volume ratio of 1:1 so as to reach 1×10^7 cells/mL, followed by suspension. Into a left abdominal region of each mouse was subcutaneously implanted 0.1 mL of cell suspension. When tumor volumes reached 150 mm^3 to 200 mm^3, mice were randomly divided into a vehicle group, a TRE single group, an ENC+CET group, a three-drug combination (TRE+ENC+CET) group including TRE and ENC+CET, an ENC+BIN+CET group, or a four-drug combination (TRE+ENC+BIN+CET) group including TRE and ENC+BIN+CET. TRE, ENC, and BIN were dissolved in Corn oil (FUJIFILM Wako Pure Chemical Industries, Ltd.), and further subjected to ultrasonic treatment using Bioruptor UCW-310 (Sonicbio. Co. Ltd.) to prepare a drug solution. ENC, BIN, and TRE were orally administrated by force once a day for 28 days at doses of 5 mg/kg, 1.75 mg/kg, and 10 mg/kg, respectively. […] The tumor size and the body weight were measured every three days from the start of the therapy. […]
Subsequently, in order to evaluate the influence of the combined use of TRE and ENC+BIN+CET or ENC+CET on in vivo tumor proliferation, a Ki-67 labeling index was calculated using a resected tumor at the end of the therapy.
Specifically, tumors were extracted from 4 to 6 mice randomly selected from each therapy group. […] Five fields of view for a central part of the tumor without tumor necrosis were selected, and 500 or more cells in total were counted in each group. The Ki-67 labeling index was calculated as the number of Ki-67 positive cells/the total number of cells.

HT29 cells = assay: Xenograft mouse model (Test Example 5), tumor volume and body weight; format: in vivo; details: nude mice, ATRA 10 mg/kg oral daily for 21 days
Protocol: As an in vivo test, the therapeutic agent for cancer according to the embodiment was administered to a mouse, and the antitumor effect was verified based on a change in tumor size (volume). Xenograft mouse model was prepared as follows. Female nude mice (BALB/c-nu) were purchased from Charles River Laboratories Japan (Yokohama, Japan) and raised in a specific pathogen-free environment. The above-described HT29 cells cultured were collected with trypsin, and suspended in a mixed solution of a culture medium and a Corning Matrigel basement membrane matrix (Corning, NY, USA) so as to reach 1×10^7 cells/ml. Into a left abdominal region of each mouse was subcutaneously implanted 0.1 mL of cell suspension. […] Encorafenib was orally administered at a dose of 10 mg/kg daily, and ATRA was orally administered at a dose of 10 mg/kg daily for 21 days. Feeding needles for mice were used for oral administration. Cetuximab was intraperitoneally administered twice a week at a dose of 20 mg/kg. Each solvent was used as the control. The tumor size and the body weight were measured every three days after the start of the therapy, and the volume was estimated using a calculation formula (tumor volume (mm^3)=½× major axis (mm)×[…]). […]

[6] = tested on: WiDR (BRAF V600E-mutated colorectal cancer cell line); assay: MTT assay, encorafenib + binimetinib with retinoid; format: cell-based; details: ATRA 0, 1.0 or 10 μM; encorafenib and binimetinib 0 to 10 μM
Protocol: as §1, §2
as §3, with “acting” for “acting and”, “tamibarotene, and” for “tamibarotene,”, “colorectal cancer” for “above-described”, “HT29, CO115, WiDR, COLO205,” for “HT29,”, “LIM2405 described above” for “CO115”

RKO cells = assay: Screening of SCADS Inhibitor Kit with dabrafenib + trametinib, cell viability by MTT assay; format: cell-based
Protocol: As the SCADS Inhibitor Kit, one provided by the Molecular Profiling Committee of the Grants-in-Aid for Scientific Research “Advanced Animal Model Support (AdAMS)” in the innovation field of the Ministry of Education, Culture, Sports, Science and Technology was used.
The RKO cells were seeded on a 96-well plate with the number of cells of 2.7×10^3 cells/well, and 24 hours later, SCADS Inhibitor Kit 4 ver 2.3 was administered at 500 nM. Two plates treated in the same manner were prepared, and 50 nM of the BRAF inhibitor Dabrafenib and 5 nM of the MEK inhibitor Trametinib were administered to one of the plates. After incubation at 37° C. for 72 hours after the drug administration, cell viability was measured by an MTT assay (described below). The cell viability was evaluated for RKO cells administered with only DMSO.
The MTT (Thiazolyl blue tetrazolium bromide) assay was performed as follows.
RKO cells were seeded on a 96-well plate with the number of cells of 1.5×10^3 cells/well, CO115 cells were seeded on a 96-well plate with the number of cells of 2.5×10^3 cells/well, and HT29 cells and WiDR cells were respectively seeded on 96-well plates with the number of cells of 6×10^3 cells/well. After incubation for about 24 hours until the cell density reached 40% to 60%, the drug was administered. […]
The synergistic effect was evaluated using Combination Index. […]

HT29 cell line [7] = assay: Annexin V-PI apoptosis assay; format: cell-based; details: TRE 10 μM, ENC 10 nM, BIN 10 nM, 72 hours, TRE vs DMSO
Protocol: (§4) Thereafter, the cells were collected, washed with PBS, and stained with Annexin V and PI using Annexin V-FITC Apoptosis Detection Kit (Nakalai Tesque). Apoptotic cells were detected using CytoFLEX LX. A proportion of cells positive for Annexin V was calculated as a proportion of apoptotic cells. The above was performed three times as an independent experiment. Student's test was used for a significant difference test.

RKO cell line = assay: Annexin V-PI apoptosis assay; format: cell-based; details: TRE 10 μM, ENC 100 nM, BIN 100 nM, 72 hours, TRE vs DMSO
Protocol: as §4

CC1=C(/C=C/C(C)=C/C=C/C(C)=C/C(=O)O)C(C)(C)CCC1 [ATRA, all-trans retinoic acid]
cell viability with encorafenib and binimetinib as a function of ATRA concentration [1]: the higher the concentration of ATRA is, the lower the cell viability is
cell viability with encorafenib and binimetinib as a function of ATRA concentration [2]: the higher the concentration of ATRA is, the lower the cell viability is
cell viability with encorafenib and binimetinib as a function of ATRA concentration [3]: the higher the concentration of ATRA is, the lower the cell viability is
cell viability with encorafenib and binimetinib as a function of ATRA concentration [4]: the higher the concentration of ATRA is, the lower the cell viability is
mouse body weights depending on the presence or absence of TRE (HT29 cell line [5]; 28 days after the therapy): no significant difference
tumor volume (HT29 cell line [5]; 28 days from the start of the therapy, ENC 5 mg/kg, BIN 1.75 mg/kg, TRE 10 mg/kg oral once a day, CET 20 mg/kg i.p. twice a week): 1156 mm^3
Ki-67 labeling index (HT29 cell line [5]; resected tumor at the end of the therapy, TRE vs vehicle, combinations vs same group without TRE): No significant difference
side effects (body weight) (HT29 cells): does not cause any significant side effects
tumor volume (tumor size) change (HT29 cells; encorafenib 10 mg/kg oral daily, cetuximab 20 mg/kg i.p. twice a week): increased with day
cell viability with encorafenib and binimetinib as a function of ATRA concentration [6]: the higher the concentration of ATRA is, the lower the cell viability is
proliferation inhibition (RKO cells; ATRA alone): less than 20%
viability at 0.5 µM (RKO cells; Homo sapiens, RKO, 72 hours, kit compound (ATRA) 0.5 μM, DAB 50 nM, TRA 5 nM, relative to DMSO): 101%
apoptotic cell proportion (Annexin V positive) (HT29 cell line [7]): no significant change
apoptotic cell proportion (Annexin V positive) (RKO cell line): no significant change
